The experiment has as its target T1, IsP (Pseudideonella sakaiensis, UniProt A0A0K8P6T7).
T1 construct: gene ISF6_4831; heterologously expressed and purified
Description: initial rates by RP-HPLC, Michaelis-Menten fit. The class given is biochemical. The note with it: 50 °C, 10 min, 0-2 mM substrate, 0.01-0.5 μM enzyme. The text has this:
initial rates by RP-HPLC, Michaelis-Menten fit on IsP

T1 sequence (A0A0K8P6T7 28-290): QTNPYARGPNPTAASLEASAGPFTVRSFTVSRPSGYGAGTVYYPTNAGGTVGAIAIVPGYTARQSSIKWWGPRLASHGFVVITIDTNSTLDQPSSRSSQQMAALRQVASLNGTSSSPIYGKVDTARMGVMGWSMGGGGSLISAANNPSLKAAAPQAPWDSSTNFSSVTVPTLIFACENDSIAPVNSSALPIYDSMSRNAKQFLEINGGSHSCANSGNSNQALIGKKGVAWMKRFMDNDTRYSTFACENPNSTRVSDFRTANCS

The Km is the substrate concentration at which the rate is half of its maximum. In the case of `O=C(O)c1ccc(C(=O)OCCOC(=O)c2ccc(C(=O)OCCOC(=O)c3ccc(C(=O)O)cc3)cc2)cc1` [TETET], the Michaelis-Menten constant (Km) came to 58 ± 29 µM.

In the case of `O=C(O)c1ccc(C(=O)OCCOC(=O)c2ccc(C(=O)OCCO)cc2)cc1` [TETE], the Michaelis constant (Km) was 140 ± 36 µM.

The record behind these values is paper PMC10108200, “Reaction Pathways for the Enzymatic Degradation of Poly(Ethylene Terephthalate): What Characterizes an Efficient PET‐Hydrolase?” (Chembiochem, 2022).
